Laboratory results published in patent US12636290B2, “BET inhibitors for modulating DUX4 expression in FSHD” (Saint Louis University, priority 2018, dated 2026).
Like-named read-outs stand apart in the source and are kept apart here.

Test system: DUX4 expression (surrogate marker MBD3L2)
Assay: Screening: qPCR analysis of DUX4 target gene MBD3L2 in differentiating MB200 FSHD2 muscle cells
Type: cell-based
Conditions: Homo sapiens, 40 hours, DUX4 expression inferred from surrogate marker MBD3L2 expression (qPCR, normalized to RPL30)
Description: Cells and Cell Culture. Primary human myoblast cell lines, immortalized by retroviral transduction of cyclin-dependent kinase 4 (CDK4) and human telomerase reverse transcriptase (hTERT) (Stadler, et al., 2011), were obtained from the Fields Center at the University of Rochester (world-wide-web at urmc.rochester.edu/fields-center.aspx). Immortalized myoblasts were grown in Ham's F-10 Nutrient Mix (Gibco, Waltham, MA, USA) supplemented with 20% HyClone Fetal Bovine Serum (GE Healthcare Life Sciences, Pittsburgh, PA, USA), 100 U/100 μg penicillin/streptomycin (Gibco), 10 ng/ml recombinant human fibroblast growth factor (Promega Corporation, Madison, WI, USA) and 1 μM dexamethasone (Sigma-Aldrich). Differentiation of myoblasts into myotubes was achieved by switching the fully confluent myoblast monolayer into Dulbecco's Modified Eagle Medium (DMEM) (Gibco) containing 1% horse serum (Gibco), 100 U/100 μg penicillin/streptomycin, 10 μg/ml insulin (Sigma-Aldrich) and 10 μg/ml transferrin (Sigma-Aldrich) (HS/IT media) or DMEM:F12 Nutrient Mixture (1:1, Gibco) supplemented with 2% KnockOut Serum Replacement (Gibco), 100 U/100 μg penicillin/streptomycin, 10 μg/ml insulin and 10 μg/ml transferrin (KSR media) for 2-6 days.
Screening: qPCR analysis of DUX4 target genes MBD3L2. For screening compounds, differentiating MB200 FSHD2 muscle cells were exposed to BET inhibitors at a variety of concentrations for 40 hours to determine the effects of the drugs on DUX4 expression. Cell lysates were prepared using Cells-to-Ct Bulk Lysis Reagents (Invitrogen, Waltham, MA, USA). Gene expression was measured by quantitative polymerase chain reaction (qPCR) was carried out on a QuantStudio 5 (Applied Biosystems, Waltham, MA, USA) using TaqMan Gene Expression Assays (Applied Biosystems) and TaqMan Fast Virus 1-Step Master Mix (Invitrogen). The relative expression levels of DUX4 target gene methyl-CpG binding domain protein 3 like 2 (MBD3L2), was normalized to that of the reference gene ribosomal protein L30 (RPL30), which was included in multiplex (two gene) PCR reactions. TaqMan Gene Expression Assay ID numbers: MBD3L2, Hs00544743_m1; RPL30, Hs00265497_m1. Data is expressed as relative expression with the expression in absence of inhibitors set to one.
Analysis of MBD3L2 expression in cultured FSHD2 cells. DUX4 mRNA is present in very low levels, even in differentiating FSHD2 myoblasts, so DUX4 target gene MBD3L2 was used as a surrogate marker of DUX4 expression. FSHD2 patient derived muscle cells were analyzed to determine whether BET inhibitors affect MBD3L2 expression, indicating a reduction in DUX4 expression.

SMILES	IC50 (read-out: DUX4* MT FSHD2: IC50)	IC50 (read-out: DUX4* MT FSHD2 IC50)
C[C@@H]1C(=O)N(C)CCN1CCOc1ccc(C2CCN(c3ccc(-c4cn(C)c(=O)c5[nH]ccc45)cn3)CC2)cc1 [SLU-2089, (R)-4-{6-[4-(4-(2-(2,4-dimethyl-3-oxopiperazin-1-yl)ethoxy)phenyl)piperidin-1-yl]pyridin-3-yl}-6-methyl-1H-pyrrolo[2,3-c]pyridin-7(6H)-one]	4.8 nM	4.8 nM
CC(=O)N1C[C@@H](C)N(CCOc2ccc(C3CCN(c4ccc(-c5cn(C)c(=O)c6[nH]ccc56)cn4)CC3)cc2)[C@@H](C)C1 [SLU-2090, 4-{6-[4-(4-(2-((2R,6S)-4-acetyl-2,6-dimethylpiperazin-1-yl)ethoxy)phenyl)piperidin-1-yl]pyridin-3-yl}-6-methyl-1H-pyrrolo[2,3-c]pyridin-7(6H)-one]	43 nM	43 nM
C[C@@H]1C(=O)N(C)CCN1CCOc1ccc(C2CCN(c3ncc(-c4cn(C)c(=O)c5[nH]ccc45)cn3)CC2)cc1 [SLU-2091, (R)-4-{2-[4-(4-(2-(2,4-dimethyl-3-oxopiperazin-1-yl)ethoxy)phenyl)piperidin-1-yl]pyrimidin-5-yl}-6-methyl-1H-pyrrolo[2,3-c]pyridin-7(6H)-one]	20 nM	20 nM
CC(=O)N1C[C@@H](C)N(CCOc2ccc(-c3ccc(-c4cn(C)c(=O)c5[nH]ccc45)cc3)cc2)[C@@H](C)C1 [SLU-2096, 4-{4′-[2-((2R,6S)-4-acetyl-2,6-dimethylpiperazin-1-yl)ethoxy]-[1,1′-biphenyl]-4-yl}-6-methyl-1H-pyrrolo[2,3-c]pyridin-7(6H)-one]	180 nM	180 nM
C[C@@H]1C(=O)N(C)CCN1CCOc1ccc(-c2ccc(-c3cn(C)c(=O)c4[nH]ccc34)cc2)cc1 [SLU-2097, (R)-4-{4′-[2-(2,4-dimethyl-3-oxopiperazin-1-yl)ethoxy]-[1,1′-biphenyl]-4-yl}-6-methyl-1H-pyrrolo[2,3-c]pyridin-7(6H)-one]	120 nM	120 nM
COc1cc(-c2ccc(OCCN3[C@H](C)CN(C(C)=O)C[C@@H]3C)cc2)ccc1-c1cn(C)c(=O)c2[nH]ccc12 [SLU-2098, 4-{4′-[2-((2R,6S)-4-acetyl-2,6-dimethylpiperazin-1-yl)ethoxy)-3-methoxy-[1,1′-biphenyl]-4-yl}-6-methyl-1H-pyrrolo[2,3-c]pyridin-7(6H)-one]	310 nM	310 nM
COc1cc(-c2ccc(OCCN3CCN(C)C(=O)[C@H]3C)cc2)ccc1-c1cn(C)c(=O)c2[nH]ccc12 [SLU-2102, (R)-4-{4′-[2-(2,4-dimethyl-3-oxopiperazin-1-yl)ethoxy]-3-methoxy-[1,1′-biphenyl]-4-yl}-6-methyl-1H-pyrrolo[2,3-c]pyridin-7(6H)-one]	130 nM	130 nM
CC(=O)N1C[C@@H](C)N(CCOc2ccc(-c3ccc4nc(-c5cn(C)c(=O)c6[nH]ccc56)ccc4c3)cc2)[C@@H](C)C1 [SLU-2104, 4-{6-[4-(2-((2R,6S)-4-acetyl-2,6-dimethylpiperazin-1-yl)ethoxy)phenyl]quinolin-2-yl}-6-methyl-1H-pyrrolo[2,3-c]pyridin-7(6H)-one]	43 nM	43 nM
CC(=O)N1C[C@@H](C)N(CCOc2ccc(-c3ccc4cc(-c5cn(C)c(=O)c6[nH]ccc56)ccc4n3)cc2)[C@@H](C)C1 [SLU-2107, 4-{2-[4-(2-((2R,6S)-4-acetyl-2,6-dimethylpiperazin-1-yl)ethoxy)phenyl]quinolin-6-yl}-6-methyl-1H-pyrrolo[2,3-c]pyridin-7(6H)-one]	48 nM	48 nM
COc1ccc(C2CCN(c3ccc(-c4cn(C)c(=O)c5[nH]ccc45)cn3)CC2)cc1 [SLU-2108, 4-{6-[4-(4-methoxyphenyl)piperidin-1-yl]pyridin-3-yl}-6-methyl-1H-pyrrolo[2,3-c]pyridin-7(6H)-one]	280 nM	280 nM
CN(C)CCOc1ccc(C2CCN(c3ccc(-c4cn(C)c(=O)c5[nH]ccc45)cn3)CC2)cc1 [SLU-2109, 4-{6-[4-(4-(2-(dimethylamino)ethoxy)phenyl)piperidin-1-yl]pyridin-3-yl}-6-methyl-1H-pyrrolo[2,3-c]pyridin-7(6H)-one]	33 nM	33 nM
C[C@@H]1C(=O)N(C)CCN1CCOc1ccc(N2CCN(c3ccc(-c4cn(C)c(=O)c5[nH]ccc45)cn3)CC2)nc1 [SLU-2110, (R)-4-{6-[4-(5-(2-(2,4-dimethyl-3-oxopiperazin-1-yl)ethoxy)pyridin-2-yl)piperazin-1-yl]pyridin-3-yl}-6-methyl-1H-pyrrolo[2,3-c]pyridin-7(6H)-one]	16 nM	16 nM
COc1cc(N2CCC(c3ccc(OCCN4CCN(C)C(=O)[C@H]4C)cc3)CC2)ncc1-c1cn(C)c(=O)c2[nH]ccc12 [SLU-2111, (R)-4-{6-[4-(4-(2-(2,4-dimethyl-3-oxopiperazin-1-yl)ethoxy)phenyl)piperidin-1-yl]-4-methoxypyridin-3-yl}-6-methyl-1,6-dihydro-7H-pyrrolo[2,3-c]pyridin-7-one]	29 nM	29 nM
C[C@@H]1C(=O)N(C)CCN1CCOc1ccc(-c2ccc3nc(-c4cn(C)c(=O)c5[nH]ccc45)ccc3c2)cc1 [SLU-2112, (R)-4-{6-[4-(2-(2,4-dimethyl-3-oxopiperazin-1-yl)ethoxy)phenyl]quinolin-2-yl}-6-methyl-1H-pyrrolo[2,3-c]pyridin-7(6H)-one]	40 nM	40 nM
CN1CCN(CCOc2ccc(C3CCN(c4ccc(-c5cn(C)c(=O)c6[nH]ccc56)cn4)CC3)cc2)CC1 [SLU-2114, 6-methyl-4-{6-[4-(4-(2-(4-methylpiperazin-1-yl)ethoxy)phenyl)piperidin-1-yl]pyridin-3-yl}-1H-pyrrolo[2,3-c]pyridin-7(6H)-one]	330 nM	330 nM
Cn1cc(-c2ccc(N3CCC4(CCN(C(=O)CO)CC4)CC3)nc2)c2cc[nH]c2c1=O [SLU-2115, 4-{6-[9-(2-hydroxyacetyl)-3,9-diazaspiro[5.5]undecan-3-yl]pyridin-3-yl}-6-methyl-1H-pyrrolo[2,3-c]pyridin-7(6H)-one]	97 nM	97 nM
Cn1cc(-c2ccc(N3CCC(c4ccc(OCCN5CCCCC5)cc4)CC3)nc2)c2cc[nH]c2c1=O [SLU-2116, 6-methyl-4-{6-[4-(4-(2-(piperidin-1-yl)ethoxy)phenyl)piperidin-1-yl]pyridin-3-yl}-1H-pyrrolo[2,3-c]pyridin-7(6H)-one]	270 nM	270 nM
COc1cc(N2CCC(c3ccc(OCCN4[C@H](C)CN(C(C)=O)C[C@@H]4C)cc3)CC2)ncc1-c1cn(C)c(=O)c2[nH]ccc12 [SLU-2117, 4-{6-[4-(4-(2-((2R,6S)-4-acetyl-2,6-dimethylpiperazin-1-yl)ethoxy)phenyl)piperidin-1-yl]-4-methoxypyridin-3-yl}-6-methyl-1H-pyrrolo[2,3-c]pyridin-7(6H)-one]	91 nM	91 nM
Cn1cc(-c2ccc(N3CCC(c4ccc(OCCN5CCOCC5)cc4)CC3)nc2)c2cc[nH]c2c1=O [SLU-2118, 6-methyl-4-{6-[4-(4-(2-morpholinoethoxy)phenyl)piperidin-1-yl]pyridin-3-yl}-1H-pyrrolo[2,3-c]pyridin-7(6H)-one]	261 nM	261 nM
